Values after ≈ are worked out from the molar mass of the structure shown. Blank lines part the entries; values can stand above or below the compound they belong to.
Tests used:
[1] = target: T1, Platelet-activating factor acetylhydrolase (Homo sapiens, UniProt Q13093)
T1 sequence (Q13093 whole entry): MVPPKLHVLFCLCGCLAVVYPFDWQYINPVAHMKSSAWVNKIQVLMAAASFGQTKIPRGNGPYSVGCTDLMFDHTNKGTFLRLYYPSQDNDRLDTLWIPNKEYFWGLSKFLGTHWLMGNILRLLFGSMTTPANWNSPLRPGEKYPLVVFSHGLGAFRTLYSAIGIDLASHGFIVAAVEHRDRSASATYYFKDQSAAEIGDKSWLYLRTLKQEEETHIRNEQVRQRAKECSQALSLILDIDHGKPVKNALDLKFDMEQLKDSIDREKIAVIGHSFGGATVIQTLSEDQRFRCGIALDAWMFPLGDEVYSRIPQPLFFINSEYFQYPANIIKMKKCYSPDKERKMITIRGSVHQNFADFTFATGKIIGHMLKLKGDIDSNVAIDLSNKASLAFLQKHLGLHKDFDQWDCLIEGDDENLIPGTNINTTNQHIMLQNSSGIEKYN
Description: Inhibition of recombinant human Lp-PLA2 pre-incubated for 30 mins before PED6 fluorogenic substrate

Cytochrome P450 3A4 = Cytochrome P450 3A4 (Homo sapiens, UniProt P08684); assay: Inhibition of CYP3A4 (unknown origin) expressed in Escherichia coli co-expressing human NADPH reductase using both 7-benzyloxyquinolone and diethoxyfluorescein substrate in presence of NADPH regenerating system incubated for 10 mins by spectrofluorometry; format: ADME
Chain of Cytochrome P450 3A4 (P08684 whole entry): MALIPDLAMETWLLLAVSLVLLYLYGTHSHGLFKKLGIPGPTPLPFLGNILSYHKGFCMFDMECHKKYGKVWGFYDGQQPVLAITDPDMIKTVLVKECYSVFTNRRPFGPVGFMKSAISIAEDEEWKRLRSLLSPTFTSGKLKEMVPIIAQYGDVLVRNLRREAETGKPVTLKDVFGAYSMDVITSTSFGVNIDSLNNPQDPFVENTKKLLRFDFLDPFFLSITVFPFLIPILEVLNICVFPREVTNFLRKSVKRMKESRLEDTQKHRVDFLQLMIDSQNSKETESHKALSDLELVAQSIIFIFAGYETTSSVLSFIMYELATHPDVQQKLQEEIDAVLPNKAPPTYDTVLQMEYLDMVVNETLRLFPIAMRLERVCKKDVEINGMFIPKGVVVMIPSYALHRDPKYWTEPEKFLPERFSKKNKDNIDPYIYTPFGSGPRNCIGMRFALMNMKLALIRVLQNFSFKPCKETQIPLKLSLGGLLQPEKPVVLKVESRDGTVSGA

[2] = Lipophilicity, log D of the compound by chromatography; format: physicochemical
[3] = Volume of distribution at steady state in Beagle dog at 0.5/1 mg/kg, iv or 0.5 mg/kg, po by LC/MS-MS method; format: ADME, organism-based, Canis lupus familiaris; conditions: in vivo, read-out: Vdss
[4] = Intrinsic clearance rat liver microsomes at 30 ug/mL pre-incubated for 7 mins before NADPH addition by LC/MS-MS method; format: ADME
[5] = Clearance in Han Wistar rat at 1 mg/kg, iv or 3 mg/kg, po administered as bolus dose by LC/MS-MS method; format: ADME, organism-based; conditions: in vivo
[6] = Protein binding in dog plasma at 10 uM incubated for 4 hrs by LC/MS-MS based rapid equilibrium dialysis method; format: ADME, cell-free, Canis lupus familiaris; conditions: read-out: PPB (converted)
[7] = Half life in Han Wistar rat at 1 mg/kg, iv or 3 mg/kg, po administered as bolus dose by LC/MS-MS method; format: ADME, organism-based; conditions: in vivo
[8] = Solubility of the compound by quantitative NMR method; format: physicochemical
[9] = Protein binding in rat plasma at 10 uM incubated for 4 hrs by LC/MS-MS based rapid equilibrium dialysis method; format: ADME, cell-free; conditions: read-out: PPB (converted)
[10] = Permeability at pH 7.4 by PAMPA method; format: ADME; conditions: read-out: permeability
[11] = Volume of distribution at steady state in Han Wistar rat at 1 mg/kg, iv or 3 mg/kg, po administered as bolus dose by LC/MS-MS method; format: ADME, organism-based; conditions: in vivo, read-out: Vdss
[12] = Clearance in Beagle dog at 0.5/1 mg/kg, iv or 0.5 mg/kg, po by LC/MS-MS method; format: ADME, organism-based, Canis lupus familiaris; conditions: in vivo
[13] = Half life in Beagle dog at 0.5/1 mg/kg, iv or 0.5 mg/kg, po by LC/MS-MS method; format: ADME, organism-based, Canis lupus familiaris; conditions: in vivo
[14] = Solubility in pH 7.4 PBS by CLND assay
[15] = target: T1, Platelet-activating factor acetylhydrolase; remark: listed apart in the source
Description: Inhibition of recombinant human Lp-PLA2 incubated for 20 mins by Thio-PAF assay

[16] = target: T1, Platelet-activating factor acetylhydrolase; remark: listed apart in the source
Description: Inhibition of Lp-PLA2 in whole human plasma pre-incubated for 15 mins before 2-thio-PAF substrate addition

[17] = Oral bioavailability in Han Wistar rat at 3 mg/kg administered as bolus dose by LC/MS-MS method; format: ADME, organism-based; conditions: in vivo
[18] = Oral bioavailability in Beagle dog at 0.5 mg/kg by LC/MS-MS method; format: ADME, organism-based, Canis lupus familiaris; conditions: in vivo
[19] = Stability in rat blood assessed as compound remaining level; format: ADME, tissue-based

IC50 [1]: 1000 µM
SMILES: CN1CC(=O)N(CCOc2ccccc2)C1=O

IC50 [1]: 39 µM
SMILES: CC1(C)CN(CCOc2ccc(F)cc2)C(=O)N1

IC50 [1]: 10 µM
SMILES: CC1(C)CCC(=O)N(CCOc2ccc(F)cc2)C1

IC50 [1]: 14 µM
SMILES: O=C1NC2(CCCCC2)C(=O)N1CCOc1ccc(F)cc1

IC50 (Cytochrome P450 3A4): > 50 µM
chromatographic logD [2]: 3
Vd [3]: 1.3 L/kg
CLH [4]: 1.1 mL/min/g
clearance [5]: 67 mL/min/kg
fraction unbound at 4 h, 10 µM [6]: 0.75
half-life [7]: 0.34 h
solubility [8]: 3500 µM (≈ 1380 µg/mL)
fraction unbound at 4 h, 10 µM [9]: 0.8
Papp [10]: 3.6 ×10⁻⁶ cm/s
Vd [11]: 1.2 L/kg
clearance [12]: 11 mL/min/kg
half-life [13]: 1.3 h
solubility kinetic [14]: > 509 µM
SMILES: CC1([C@@H]2CC(=O)N(CCOc3ccc(F)c(C#N)c3)C2)CCS(=O)(=O)CC1

IC50 [15]: 1 µM
SMILES: C[C@]1(c2ccccc2)CC(=O)N(CCOc2ccc(F)c(C#N)c2)C1

IC50 [16]: 13 µM
IC50 [15]: 5.4 µM
SMILES: CC(C)[C@@]1(C)CC(=O)N(CCOc2ccc(F)c(C#N)c2)C1

IC50 [1]: 20 µM
SMILES: CN1C(=O)N(CCOc2ccccc2)C(=O)C1(C)C

IC50 [16]: 6.2 µM
IC50 [15]: 2.3 µM
SMILES: CC(C)[C@]1(C)CC(=O)N(CCOc2ccc(F)c(C#N)c2)C1

chromatographic logD [2]: 1.7
SMILES: CN1CCC(C)([C@H]2CC(=O)N(CCOc3ccc(F)c(C#N)c3)C2)CC1

IC50 (Cytochrome P450 3A4): > 50 µM
chromatographic logD [2]: 3.4
IC50 [16]: 0.1 µM
IC50 [1]: 0.086 µM
fraction unbound at 4 h, 10 µM [9]: 0.7
Papp [10]: 17 ×10⁻⁶ cm/s
solubility kinetic [14]: > 450 µM
SMILES: CC1([C@@H]2CC(=O)N(CCOc3ccc(F)c(F)c3)C2)CCS(=O)(=O)CC1

IC50 [1]: 11 µM
SMILES: CC1(C)CC(=O)N(CCOc2ccc(F)cc2)C1

chromatographic logD [2]: 2.8
SMILES: CC1([C@H]2CC(=O)N(CCOc3ccc(F)c(C#N)c3)C2)CCS(=O)(=O)CC1

IC50 [1]: 3 µM
IC50 [15]: 15 µM
SMILES: CC1(C)CC(=O)N(CCOc2ccc(F)c(C#N)c2)C1

IC50 [15]: 1.6 µM
SMILES: C[C@@]1(c2ccccc2)CC(=O)N(CCOc2ccc(F)c(C#N)c2)C1

bioavailability [17]: 52%
Vd [3]: 2.5 L/kg
clearance [5]: 24 mL/min/kg
half-life [7]: 1.8 h
Vd [11]: 3.2 L/kg
clearance [12]: 8.6 mL/min/kg
bioavailability [18]: 76%
half-life [13]: 3.2 h
SMILES: CN1CCC(C)(C2CC(=O)N(CCOc3ccc(F)c(C#N)c3)C2)CC1.Cl (racemic)

IC50 (Cytochrome P450 3A4): > 50 µM
fraction unbound at 4 h, 10 µM [6]: 0.56
fraction unbound at 4 h, 10 µM [9]: 0.71
Papp [10]: 21 ×10⁻⁶ cm/s
solubility kinetic [14]: > 396 µM
SMILES: CN1CCC(C)(C2CC(=O)N(CCOc3ccc(F)c(C#N)c3)C2)CC1 (racemic)

IC50 [15]: 0.86 µM
SMILES: N#Cc1cc(OCCN2CC(c3ccccc3)CC2=O)ccc1F (racemic)

chromatographic logD [2]: 3.1
IC50 [16]: 1.5 µM
IC50 [1]: 0.76 µM
SMILES: CC1(C2CC(=O)N(CCOc3ccc(F)cc3)C2)CCS(=O)(=O)CC1 (racemic)

bioavailability [17]: 47%
chromatographic logD [2]: 3.4
IC50 [16]: 0.29 µM
clearance [5]: 22 mL/min/kg
IC50 [1]: 0.16 µM
half-life [7]: 0.35 h
Vd [11]: 0.63 L/kg
SMILES: CC1(C2CC(=O)N(CCOc3ccc(F)c(F)c3)C2)CCS(=O)(=O)CC1 (racemic)

IC50 [15]: 1.9 µM
SMILES: CC(C)C1CC(=O)N(CCOc2ccc(F)c(C#N)c2)C1 (racemic)

IC50 [15]: 2 µM
SMILES: CC(C)C1(C)CC(=O)N(CCOc2ccc(F)c(C#N)c2)C1 (racemic)

chromatographic logD [2]: 2.9
IC50 [16]: 0.66 µM
IC50 [1]: 0.25 µM
SMILES: CC(=O)N1CCC(C)(C2CC(=O)N(CCOc3ccc(F)c(C#N)c3)C2)CC1 (racemic)

chromatographic logD [2]: 3.7
IC50 [16]: 0.26 µM
IC50 [1]: 0.16 µM
SMILES: CC1(C2CC(=O)N(CCOc3ccc(F)c(C#N)c3)C2)CCOCC1 (racemic)

IC50 [16]: 5.1 µM
IC50 [15]: 0.98 µM
SMILES: CC(C)(C)C1CC(=O)N(CCOc2ccc(F)c(C#N)c2)C1 (racemic)

chromatographic logD [2]: 2.8
Stability [19]: 100%
SMILES: CC1(C2CC(=O)N(CCOc3ccc(F)c(C#N)c3)C2)CCS(=O)(=O)CC1 (racemic)

SMILES: CC1(C2CC(=O)N(CCOc3ccc(F)c(C#N)c3)C2)CCNCC1 (racemic; form 1)
chromatographic logD [2]: 1.5

SMILES: CC1(C2CC(=O)N(CCOc3ccc(F)c(C#N)c3)C2)CCNCC1.Cl (racemic; form 2)
bioavailability [17]: < 5%
IC50 (Cytochrome P450 3A4): > 50 µM
logD [2]: 1.5
clearance [5]: 15 mL/min/kg
half-life [7]: 2.4 h
fraction unbound at 4 h, 10 µM [9]: 0.81
Papp [10]: < 0.3 ×10⁻⁶ cm/s
Vd [11]: 2 L/kg
solubility kinetic [14]: 242 µM

chromatographic logD [2]: 6.3
solubility kinetic [14]: 8 µM (≈ 5.33 µg/mL)
SMILES: CCN(CC)CCN(Cc1ccc(-c2ccc(C(F)(F)F)cc2)cc1)C(=O)Cn1c(SCc2ccc(F)cc2)nc(=O)c2c1CCC2 [DARAPLADIB]

Source: ChEMBL document CHEMBL3860104, “Fragment-Based Approach to the Development of an Orally Bioavailable Lactam Inhibitor of Lipoprotein-Associated Phospholipase A2 (Lp-PLA2)” (J Med Chem, 2016)
